For this assay, the system named is protein kinase. The assay is described as follows: HTS ATP-utilizing enzyme assay, off-chip mobility-shift format (Caliper HTS 250). It is filed as biochemical, human. The note with it: test compound 10 μM; for protein kinase against which the compound exhibits inhibitory activity (Table 3): active = activity greater than three-sigma from the mean of the predominately inactive population for that enzyme; for Kinase: kinase(s) for which the compound exhibits protein kinase inhibitory activity, active = greater than three-sigma from the mean activity of inactive compounds. The method, boiled down:
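Kinase reactions ran 2.5 h at 20 to 22 °C with test compound at 10 μM, in a HEPES pH 7.5 master buffer containing Triton X-100 and BSA. Peptide substrate and phosphorylated product separated by mobility shift; inhibition normalized to DMSO (0%) and EDTA (100%) controls, with three-sigma thresholds for hits.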

The record followed here is patent publication US20050288347A1, “Certain triazole-based compounds, compositions, and uses thereof” (priority 2004, published 2005).

Entries after “also recorded” stand apart in the source; their conditions may differ.

For `CCOC(=O)CCSc1nnc(-c2cccnc2)[nH]1` [ethyl 3-(5-(pyridin-3-yl)-4H-1,2,4-triazol-3-ylthio)propanoate], the “protein kinase against which the compound exhibits inhibitory activity (Table 3)” value is on record as “AURORA-A; also recorded: DYRK2”.

In the case of `CCOC(=O)c1ccc(CSc2nnc(-c3cccc(C)c3)[nH]2)o1` [ethyl 5-((5-m-tolyl-4H-1,2,4-triazol-3-ylthio)methyl)furan-2-carboxylate], the “protein kinase against which the compound exhibits inhibitory activity (Table 3)” value is on record as “AURORA-A; also recorded: FLT-3; also recorded: CHEK2”.

Regarding `CCOC(=O)c1ccc(CSc2nnc(-c3ccccc3)[nH]2)o1` [ethyl 5-((5-phenyl-4H-1,2,4-triazol-3-ylthio)methyl)furan-2-carboxylate], the “protein kinase against which the compound exhibits inhibitory activity (Table 3)” value is “AURORA-A; also recorded: FLT-3; also recorded: GSK3-β”.

Take `CCn1c(SCC(=O)OC)nnc1-c1ccc(O)cc1` [methyl 2-(4-ethyl-5-(4-hydroxyphenyl)-4H-1,2,4-triazol-3-ylthio)acetate]: the Kinase entry is reported as “GSK3-β; also recorded: GSK3-α; also recorded: CHEK1”.

In the case of `CCn1c(SCC(=O)OC)nnc1-c1ccc([N+](=O)[O-])cc1` [methyl 2-(4-ethyl-5-(4-nitrophenyl)-4H-1,2,4-triazol-3-ylthio)acetate], the Kinase result is “PDGFRR-α and FYN”.

Regarding `CCn1c(SCC(=O)OC)nnc1-c1ccccc1` [methyl 2-(4-ethyl-5-phenyl-4H-1,2,4-triazol-3-ylthio)acetate], the Kinase result is “MAPKAPK-2”.

Turning to `COC(=O)CSc1nnc(-c2ccncc2)[nH]1` [methyl 2-(5-(pyridin-4-yl)-4H-1,2,4-triazol-3-ylthio)acetate], the Kinase result is “AURORA-A; also recorded: DYRK2; also recorded: GSK3-β”.

In the case of `CCC(c1ccccc1)c1nnc(SCc2ccc(C(=O)OC)cc2)[nH]1` (centres unmarked) [methyl 4-((5-(1-phenylpropyl)-4H-1,2,4-triazol-3-ylthio)methyl)benzoate], the “protein kinase against which the compound exhibits inhibitory activity (Table 3)” value was “FLT-3”.

Turning to `COC(=O)c1ccc(CSc2nnc(-c3cccs3)[nH]2)cc1` [methyl 4-((5-(thiophen-2-yl)-4H-1,2,4-triazol-3-ylthio)methyl)benzoate], the “protein kinase against which the compound exhibits inhibitory activity (Table 3)” value was “AURORA-A; also recorded: FLT-3; also recorded: c-TAK1”.

Regarding `COC(=O)c1ccc(CSc2nnc(-c3cccc(C)c3)[nH]2)cc1` [methyl 4-((5-m-tolyl-4H-1,2,4-triazol-3-ylthio)methyl)benzoate], the “protein kinase against which the compound exhibits inhibitory activity (Table 3)” value is “AURORA-A; also recorded: FLT-3; also recorded: c-TAK1”.

On to `COC(=O)c1ccc(CSc2nnc(C)[nH]2)cc1` [methyl 4-((5-methyl-4H-1,2,4-triazol-3-ylthio)methyl)benzoate], for which the “protein kinase against which the compound exhibits inhibitory activity (Table 3)” value is reported as “DYRK2; also recorded: AURORA-A”.
